Source: patent publication US5847107A, “Method of preparing mixed glucosamine salts” (Rotta Research B.V. Amsterdam (Swiss Branch), priority 1996, dated 1998)

Key:
[1] = pH of a saturated aqueous solution at 20° C.; type: physicochemical
[2] = Stability at 25° C. and 60% R.H. (appearance, titre); type: physicochemical
[3] = Partition coefficient in phosphate buffer (pH 6.8)/n-octanol at 25° C.; type: physicochemical
[4] = Stability at 40° C. and 85% R.H. (appearance, titre); type: physicochemical
[5] = Solubility (25° C. - w/v); type: physicochemical; details: for Solubility in acetone, acetonitrile, tetrahydrofuran, dioxane: practically insoluble; for Solubility in methanol: slightly soluble; for Solubility in ethanol: very slightly soluble; for Solubility in water: very soluble
[6] = cited from earlier work
[7] = 0 months, (*): Crystalline powder of pale cream colour
[8] = 18 months (after slight yellowing at 12 months)
[9] = 24 months (after slight yellowing at 12 months)

Structure (SMILES) | pH of a saturated aqueous solution [1] | Titre ([2]; 0 months) [%] | Appearance [2, 7] | Appearance ([2]; 3 months) | Titre ([2]; 3 months, 131400 min) [%] | Appearance ([2]; 6 months) | Titre ([2]; 6 months, 262800 min) [%] | Appearance ([2]; 9 months) | Titre ([2]; 9 months, 394200 min) [%] | Appearance ([2]; 12 months) | Titre ([2]; 12 months, 525600 min) [%] | Partition coefficient [3] | Titre ([4]; 0 months) [%] | Appearance [4, 7] | Appearance ([4]; 3 months) | Titre ([4]; 3 months, 129600 min) [%] | Appearance ([4]; 6 months) | Titre ([4]; 6 months, 259200 min) [%] | Appearance ([4]; 9 months) | Titre ([4]; 9 months, 388800 min) [%] | also measured
Cl.N[C@H]1C(O)O[C@H](CO)[C@@H](O)[C@@H]1O.O=S(=O)([O-])[O-].[Mg+2] (some centres unmarked) [Example 8] | 3 +/-0.2 | 100.5 | conforms | unchanged | 100.1 | unchanged | 99.8 | unchanged | 100.3 | unchanged | 100.6 | practically infinite | 100.5 | conforms | unchanged | 100.6 | unchanged | 100.1 | unchanged | 100.2 | Titre ([4]; 12 months, 518400 min): 97.4%; Appearance [4, 8]: unchanged; Titre ([4]; 18 months, 777600 min): 97.7%; Appearance [4, 9]: unchanged; Titre ([4]; 24 months, 1.0368e+06 min): 97.3%; Solubility in benzene, chloroform, carbon tetrachloride, methylene chloride, ligroin, ethyl ether [5]: Insoluble; Solubility in acetone, acetonitrile, tetrahydrofuran, dioxane [5]: < 0.01 % (w/v); Solubility in methanol [5]: about 1 % (w/v); Solubility in ethanol [5]: about 0.03 % (w/v); Solubility in water [5]: about 40 % (w/v)
Cl.N[C@H]1C(O)O[C@H](CO)[C@@H](O)[C@@H]1O.O=S(=O)([O-])[O-].[K+].[K+] (some centres unmarked) [Example 6] | 3 +/-0.2 | 100.1 | conforms | unchanged | 100.3 | unchanged | 99.8 | unchanged | 99.6 | unchanged | 100.3 | practically infinite | 100.1 | conforms | unchanged | 100.3 | unchanged | 99.8 | unchanged | 100.0 | Titre ([4]; 12 months, 518400 min): 95.7%; Appearance [4, 8]: unchanged; Titre ([4]; 18 months, 777600 min): 96.2%; Appearance [4, 9]: unchanged; Titre ([4]; 24 months, 1.0368e+06 min): 95.5%; Solubility in benzene, chloroform, carbon tetrachloride, methylene chloride, ligroin, ethyl ether [5]: Insoluble; Solubility in acetone, acetonitrile, tetrahydrofuran, dioxane [5]: < 0.01 % (w/v); Solubility in methanol [5]: about 1 % (w/v); Solubility in ethanol [5]: about 0.03 % (w/v); Solubility in water [5]: about 40 % (w/v)
N[C@H]1C(O)O[C@H](CO)[C@@H](O)[C@@H]1O.O=S(=O)(O)O (some centres unmarked) [glucosamine sulphate, reference compound] | – | – | – | – | – | – | – | – | – | – | – | – | – | – | – | – | – | – | – | – | Hygroscopicity ([6]; background statement): highly hygroscopic
Cl.N[C@H]1C(O)O[C@H](CO)[C@@H](O)[C@@H]1O (some centres unmarked) [glucosamine hydrochloride, reference compound] | – | – | – | – | – | – | – | – | – | – | – | – | – | – | – | – | – | – | – | – | Stability on storage ([6]; no particular precautions in time, temperature or humidity): stable
